According to article PMC12801355, “Peptide Amphiphiles Hitchhike on Endogenous Biomolecules for Enhanced Cancer Imaging and Therapy” (Advanced Materials (Deerfield Beach, Fla.), 2025):
Where a SMILES comes first, the peptide text is derived from it. Where no end group is shown, it is not given here. [ ]: non-standard residue; d: D form. The star is where a group is joined. Dolaproine = CO[C@@H]([C@@H]1CCCN1)[C@@H](C)C(=O)O; Dil = CC[C@H](C)[C@H](NC)[C@@H](CC(=O)O)OC; Palmitoyl = CCCCCCCCCCCCCCCC(=O)*; X1 = C[C@@H](N*)[C@@H](O)c1ccccc1; NMeV = CN[C@H](C(=O)O)C(C)C

Experiments:
4T1 tumor [1] = test: Tumor accumulation, live IVIS imaging; type: in vivo, mouse; settings: 50 nmol IV
Method: For tumor accumulation studies in subcutaneous (HCT‐116, A375, TRAMP‐C2, MC38, LLC1, RG2, PDX cell lines, wild type or SR‐B1 ‐/‐ TRAMP‐C2, and wild type or LDL‐R ‐/‐ HeLa), intradermal (A375), or fat pad (4T1 and MCF‐7) tumors, cells were implanted as described above. When the tumors reached a size around ≈0.3–1 cm, mice were injected intravenously with 100 µL of ICG conjugated PAs (in PBS, 0.5 mM) or free ICG (in PBS, 0.5 mM). After probe injections, mice were imaged using the IVIS Spectrum (PerkinElmer) with excitation and emission wavelengths of 745 and 820 nm, respectively, at the specified time points. Living Image (PerkinElmer) software was used for all analyses. For MMTV mice experiments, mice were injected intravenously weekly with SA‐E (100 µL PBS, 0.5 mM) between 71 and 85 days of age and imaged 2 days later in the IVIS. […] SA‐E was injected intravenously (100 µL PBS, 0.5 mM), 2 days later the intestinal tissue was harvested, washed, and analyzed in the IVIS for ICG.

[2] = Blood circulation in mice; type: in vivo, mouse
Method: For blood circulation experiments, Balb/c mice were injected with 100 µL of ICG conjugated PAs or No‐SA, or free ICG (0.5 mM). Then, blood was drawn via the saphenous vein or retro‐orbitally at different time points (immediately after injection to 1 day). […] Blood from wild type mice was collected to prepare calibration curves for each probe. To each 18 µL aliquot of blood, 2 µL of probe stock solution (0.5 mM) was added and incubated at 37 °C for 1 h. The spiked samples were then serially diluted in blood between 50 and 0.1 µM. For fluorescence measurement, 2 µL of each diluted sample was further diluted into 98 µL of PBS, and ICG fluorescence was measured using a TECAN plate reader.

4T1 tumor [3] = test: Antitumor effect, 4T1 orthotopic mouse model
Method: All experiments were approved by the Oregon Health and Science University (OHSU) Institutional Animal Care and Use Committee (IACUC) (TR01_IP00000674) and conformed to the guidelines set by the United States Animal Welfare Act and the National Institutes of Health. Mice were aged between 3 and 8 months and 20–30 g in weight and were housed in specific pathogen free cages. Human, mouse, or rat cells were injected into nude (The Jackson Laboratory, 002019), NSG mice (The Jackson Laboratory, 005557), Balb/c mice (The Jackson Laboratory, 000651), or C57Bl/6J mice (The Jackson Laboratory, 000664), as specified below. Cells were injected in 100 µL sterile DMEM at a concentration of 0.5–1×10^7 cells mL^−1, unless otherwise specified. For tumor accumulation and biodistribution studies, A375 cells were injected intradermally into the left ears of NSG mice (The Jackson Laboratory, 005557). MCF7 cells were injected into the mammary fat pad of NSG mice. HCT‐116, RG2, and HeLa (wild type or LDL‐R knockout) cells were subcutaneously injected into the left or both flanks of NSG mice. 4T1 cells were injected into the mammary fat pad of Balb/c mice. LLC1, MC38, and TRAMP‐C2 (wild type or SR‐B1 knockout) were injected into C57Bl/6J mice. Patient‐derived xenografts were generated by injecting the patient‐derived cancer cells subcutaneously into the left flank of NSG mice. ApoA1 and LDL‐R knockout mice were purchased from the Jackson Laboratory (002055 and 002207, respectively). MC38 cells were subcutaneously injected into both flanks of these mice. Apc^min and MMTV‐PyMT mice were purchased from the Jackson Laboratory (002020 and 002374). For antitumor activity studies, 4T1 cells were injected into the mammary fat pad of Balb/c mice. HCT‐116 and RG2 cells were subcutaneously injected into the left flanks of nude mice. For antitumor activity studies, HCT‐116 cells were injected in a 1:1 mixture of DMEM and Matrigel (Life Science 354263).
Mice were injected with 4T1, RG2, or HCT‐116 cells as described above. Mice were then treated intravenously with the free MMAE (0.1 or 0.3 mg kg^−1), SA‐E‐MMAE (0.3, 0.6, 0.8, or 1 mg kg^−1) or PBS (10 mM, pH 7.4). 5 doses were given every 2–3 days over 11 days. […] Tumor size and mouse weight were monitored 2–3 times per week until a humane endpoint (tumor size ≈2 cm or >20% body weight loss) or the study endpoint (18, 25, or 120 days for 4T1, RG2, and HCT‐116 studies, respectively). Tumor size was measured in two directions with a caliper rounded to the nearest tenth of a mm. Volume was calculated as a basic sphere of 4/3πr^3.

[4] = test system: 4T1 mouse breast cancer cells; test: Cellular uptake of Cy5 labeled PAs; type: cell-based
Method: To compare the uptake of SA‐E and SA‐K, 1 × 10^5 4T1 cells were grown to near confluency (1–2 days) in 96 well plates with black walls and flat glass bottom. 100% Cy5 conjugated PAs (20 or 10 µM) or 10% Cy5 conjugated PA micelles (10 µM Cy5‐PAs mixed with 90 µM maleimide blocked labeled PAs) were preincubated in 10% FBS containing RPMI for 30 min at 37 °C, wells were aspirated, and 100 µL of media containing PAs were added. The plate was incubated for 30 min for the experiments with 100% Cy5 conjugated PAs. Media were aspirated, wells were washed 3x with 150 µL sterile PBS, and then 100 µL RPMI containing 10% FBS was added to each well. The plate was incubated for 1 h at 37 °C. For 10% and 100% Cy5 micelle uptake comparison, plate was incubated for 2 h at 37 °C with PAs. Then, media containing PAs were aspirated and washed with PBS, as above. Cell nuclei were stained with Hoechst (1:5000 dilution in PBS) for 5 min and then removed. 100 µL of phenol red free RPMI containing 10% FBS was added to each well. […] The microscope incubator was preheated for 30 min to reach 35 °C prior to imaging.
To study the uptake of SA‐E or SA‐K micelles (10% or 100% Cy5 micelles) or No‐SA over time, 4T1 cells were grown to near confluency in a 96 well plate as described above. Cy5 conjugated 100% Cy5 conjugated PAs (20 µM), 10% Cy5 conjugated PAs (10 µM Cy5), or No‐SA (20 µM) or were preincubated in 10% FBS containing RPMI for 30 min at 37 °C. Cell nuclei were stained with Hoechst stain as above. Cell membranes were stained (CellBrite 488, 1:1000 in 10% FBS containing RPMI) for 30 min at 37 °C. Wells were aspirated, and 100 µL of PAs were added to the wells for ≈1 min. Wells were washed with sterile PBS (3x, 150 µL), and Confocal images were taken at different time points (up to 2 h) after PA or No‐SA addition as described above using a 60x objective.

[5] = Fluorescence polarization of PA nanostructures; type: physicochemical; settings: 10 mol% ICG conjugated PA (20 µM) with unconjugated PA, 200 µM total, PBS; mean ± SEM, 3 wells
Method: ICG (10 mol%) containing PA micelles were prepared by mixing ICG‐conjugated PAs with unconjugated or MMAE‐conjugated PAs to achieve a final concentration of 20 µM ICG‐conjugated PAs and 200 µM of total PAs. Aliquots of 100 µL were added to a 96‐well plate (3 wells for each PA). Fluorescence polarization measurements were performed using a microplate reader (TECAN Spark 20 M). The corrected parallel intensity (I par) and perpendicular intensity (Iper) were used to calculate the fluorescence anisotropy (r) using the following equation: r = […].

[6] = TEM imaging of PA nanostructures; type: physicochemical; settings: ICG conjugated PA, 200 µM in ultrapure water, negative stain
Method: For TEM imaging, PAs conjugated with ICG, Cy5 or MMAE were dissolved in ultrapure water at a concentration of 200 µM. Carbonfilm 200 copper mesh TEM grids were glow‐discharged first. Then, PA solutions (15 µL) were placed on the grids, incubated for 10 min before blotting, and air‐dried. 15 µL of ultrapure water was applied to wash the grid for 3 min. After incubation, the water was removed by blotting from the edge of the grid. For negative staining of the samples, a 0.4% uranyl acetate solution was prepared in ultrapure water and filtered using a 0.1 µm syringe filter. 15 µL of filtered uranyl acetate solution was applied to the grid and incubated for 5 min. Finally, TEM grids were blotted to remove excess stain and dried at room temperature. TEM imaging was performed using a Tecnai or Talos microscope (FEI).

[7] = PA fluorescence in liver homogenates; type: in vitro ADME; settings: ICG conjugated, 0.1 to 10 µM spiked into mouse liver homogenate, IVIS
Method: Liver samples (6.2 g total weight) collected from healthy BALB/cJ mice were placed in a gentleMACS M Tube containing 2 mL of PBS. The M Tube was fitted with a 600 µm mesh strainer, and homogenization was performed using a gentleMACS Dissociator by running a one‐minute program at 1260 rotations per round (rpr) for five cycles. ICG conjugated SA‐E and SA‐K were then spiked into the liver homogenates in a 96‐well plate at final concentrations of 0, 0.1, 0.5, 2.0, 5.0, and 10 µM. Fluorescence signals from the homogenates were measured using an IVIS (PerkinElmer).

[8] = test system: LPs (HDL, LDL, VLDL) and albumin in pooled human plasma; parameters: AUC of all FPLC peaks, lower than SA‐E: unit not given beside the values

In the case of `CC1(C)C(/C=C/C=C/C=C/C=C2\N(CCCCS(=O)(=O)O)c3ccc4ccccc4c3C2(C)C)=[N+](CCCCS(=O)(=O)[O-])c2ccc3ccccc3c21` [free ICG, indocyanine green], the TBR (4T1 tumor [1]; all time points) is reported as “around 1”, the “injected dose still in circulation” value ([2]; wild type (Balb/c) mice, ICG conjugated or free ICG 50 nmol IV, 6 h post injection, blood fluorescence with calibration curve) is reported as “not detectable” and the “blood concentration, share of injected dose” value ([2]; wild type mice, 50 nmol IV, in 30 min) is reported as “below 1%”.

With `CC[C@H](C)[C@@H]([C@@H](CC(=O)N1CCC[C@H]1[C@H](OC)[C@@H](C)C(=O)N[C@H](C)[C@@H](O)c1ccccc1)OC)N(C)C(=O)[C@@H](NC(=O)[C@@H](NC)C(C)C)C(C)C` [free MMAE, Monomethyl auristatin E] (H-[NMeV]V[Dil][Dolaproine]-X1) the tolerability (4T1 tumor [3]; 0.1 mg kg^−1 IV, 5 doses, n = 3) was “tolerated”, the tolerability (4T1 tumor [3]; 0.3 mg kg^−1 IV, stopped after the third injection, n = 5) was “high toxicity with rapid weight loss” and the “effect on tumor growth” value (4T1 tumor [3]; 0.1 or 0.3 mg kg^−1 IV) was “slight reduction in tumor growth”.

With `CCCCCCCCCCCCCCCC(=O)NCC(=O)NCC(=O)NCC(=O)N[C@@H](Cc1c[nH]cn1)C(=O)N[C@@H](C)C(=O)N[C@@H](C)C(=O)N[C@@H](CC(N)=O)C(=O)NCC(=O)N[C@@H](CCCCN)C(=O)N[C@@H](CCCCN)C(=O)N[C@@H](CS)C(=O)N[C@@H](CCCCN)C(=O)O` [SA‐K] (Palmitoyl-GGGHAANGKKCK-OH) the “maximum TBR, lower than that of SA‐E” value (4T1 tumor [1]; 4T1 tumor‐bearing mice) was “approximately two‐fold”, the “maximum tumor signal, lower than maximum of SA‐E” value (4T1 tumor [1]; 4T1 tumor‐bearing mice) was “≈ 6 fold” and the “total tumor accumulation (AUC of tumor signal), lower than SA‐E” value (4T1 tumor [1]; 4T1 tumor‐bearing mice) was “≈ 2.7 fold”. The “time of maximum tumor fluorescence” value (4T1 tumor [1]; 4T1 tumor‐bearing mice, ICG conjugated) was 4 days, the “uptake relative to SA‐E” value ([4]; Cy5 conjugated PAs, 10% FBS RPMI, 30 min incubation then 1 h, confocal) was “approximately three‐fold” and the “fluorescence anisotropy of ICG in micelles” value [5] was 0.299 ± 0.008. The “diameter of rod‐shaped micelles (TEM)” value [6] was “≈ 10 nm”, the “length of rod‐shaped micelles (TEM)” value [6] was “several hundred” and the “fluorescence in liver homogenates, SA‐E versus SA‐K (disassembly)” value [7] was “almost identical fluorescence intensity”. The “AUC of all FPLC peaks, lower than SA‐E” value [8] was “≈ 4.5”.

For GGGHAANGEECE [No‐SA], the “TBR compared to SA‐E” value (4T1 tumor [1]; 4T1 tumor‐bearing mice) was “significantly lower TBR”, the “clearance from the tumor” value (4T1 tumor [1]; ICG conjugated, 4T1) was “mostly cleared in 2 days” and the “membrane binding and internalization” value ([4]; Cy5‐conjugated, 20 µM, ≈1 min exposure, imaging up to 2 h) was “no significant membrane binding or internalization”.
